# Patent publication US20110003689A1, “USE OF POLYMERIC GUANIDINE DERIVATIVES FOR THE CONTROL OF UNWANTED MICROORGANISMS IN CROP PROTECTION” (AKA TECHNOLOGY GMBH, priority 2007, published 2011)
# Counter-ions that a name gives are not always drawn. Like-named read-outs stand apart in the source and are kept apart here.
# Experiments:
# Pyrenophora teres = Pyrenophora teres test (barley)/curative (Example U); type: in vivo
# [1] = tested on: Blumeria graminis f. sp. hordei; assay: Blumeria graminis test (barley)/curative (Example P); type: in vivo; conditions: 168 h, read-out: Efficacy in % found
# Venturia inaequalis = assay: Venturia test (apple)/protective, combinations (Example L)
# Procedure: After the spray coating has dried on, the plants are inoculated with an aqueous conidia suspension of the apple scab pathogen Venturia inaequalis and then remain in an incubation cabin at about 20° C. and 100% relative atmospheric humidity for 1 day. The plants are then placed in a greenhouse at about 21° C. and a relative atmospheric humidity of about 90%. Evaluation is carried out 10 days after inoculation.
# Botrytis cinerea = assay: Botrytis test (bean)/protective (Example N)
# Procedure: After the spray coating has dried on, 2 small pieces of agar colonized by Botrytis cinerea are placed onto each leaf. The inoculated plants are placed in a dark chamber at about 20° C. and 100% relative atmospheric humidity. 2 days after the inoculation, the size of the infected areas on the leaves is evaluated.
# Puccinia triticina = Puccinia triticina test (wheat)/curative (Example T); type: in vivo
# Fusarium graminearum = type: in vivo; conditions: 500 ppm
# Alternaria solani = assay: Alternaria test (tomato)/protective, combinations (Example M); type: in vivo
# [2] = tested on: Blumeria graminis f. sp. hordei; assay: Blumeria graminis test (barley)/protective (Example O); type: in vivo; conditions: 125 ppm
# Procedure: [table] […] Evaluation is carried out 7 days after inoculation.
# Plasmopara viticola = assay: Plasmopara test (grapevine)/protective, combinations (Example K); type: in vivo
# Leptosphaeria nodorum [3] = assay: Leptosphaeria nodorum test (wheat)/curative (Example R); type: in vivo; conditions: 62.5 ppm
# Leptosphaeria nodorum [4] = assay: Leptosphaeria nodorum test (wheat)/protective (Example Q); type: in vivo; conditions: 62.5 ppm
# Phytophthora infestans = type: in vivo
# [5] = Alternaria solani, 72 h, read-out: Efficacy in % found
molecule,measurement,setting,value
"Fc1ccc([C@]2(Cn3cncn3)O[C@H]2c2ccccc2Cl)cc1 (racemic) [(B-12) epoxiconazole, epoxiconazole]",Efficacy in % found,Pyrenophora teres; 500 ppm,78%
"CC(C)(C)C(O)C(Oc1ccc(-c2ccccc2)cc1)n1cncn1 (centres unmarked) [(B-3) bitertanol, bitertanol]",pest or weed control at 500 ppm,[1]; 500 ppm,63%
same,Efficacy in % found,Venturia inaequalis; 2.5 ppm,63%
"CC1COC(Cn2cncn2)(c2ccc(Oc3ccc(Cl)cc3)cc2Cl)O1 (centres unmarked) [(B-7) difenoconazole, difenoconazole]",pest or weed control at 250 ppm,[1],78%
"CC1(C(=O)Nc2ccc(O)c(Cl)c2Cl)CCCCC1 [(B-16) fenhexamid, fenhexamid]",Efficacy in % found,Botrytis cinerea; 2.5 ppm,0%
"C=CCOC(Cn1ccnc1)c1ccc(Cl)cc1Cl (centres unmarked) [(B-26) imazalil, imazalil]",Efficacy in % found,Puccinia triticina; 500 ppm,83%
"CCCN(CCOc1c(Cl)cc(Cl)cc1Cl)C(=O)n1ccnc1 [(B-39) prochloraz, prochloraz]",Efficacy in % found,Fusarium graminearum,63%
"OC(Cc1ccccc1Cl)(Cn1nc[nH]c1=S)C1(Cl)CC1 (centres unmarked) [(B-41) prothioconazole, prothioconazole]",pest or weed control at 5 ppm,Alternaria solani; [5],1%
same,Efficacy in % found,Pyrenophora teres; 125 ppm,78%
"CCCN(CC)CC1COC2(CCC(C(C)(C)C)CC2)O1 (centres unmarked) [(B-46) spiroxamine, spiroxamine]",Efficacy in % found,Puccinia triticina; 1000 ppm,40%
"CC(C)(C)C(O)(CCc1ccc(Cl)cc1)Cn1cncn1 (centres unmarked) [(B-47) tebuconazole, tebuconazole]",pest or weed control at 5 ppm,Alternaria solani; [5],29%
same,Efficacy in % found,Pyrenophora teres; 250 ppm,60%
"CCCCCCCCCCCCCN1CC(C)OC(C)C1 (centres unmarked) [(B-52) tridemorph, tridemorph]",pest or weed control at 250 ppm,[1],75%
"Cn1cc(C(=O)Nc2ccc(F)cc2-c2ccc(Cl)c(Cl)c2)c(C(F)F)n1 [(C-2) bixafen, N-(3′,4′-dichloro-5-fluoro-1,1′-biphenyl-2-yl)-3-(difluoromethyl)-1-methyl-1H-pyrazole-4-carboxamide]",pest or weed control at 1.25 ppm,"Alternaria solani; Alternaria solani, 72 h, 1.25 ppm, read-out: Efficacy in % found",49%
same,pest or weed control at 500 ppm,[1]; 500 ppm,63%
"O=C(Nc1ccccc1-c1ccc(Cl)cc1)c1cccnc1Cl [(C-3) boscalid, boscalid]",Efficacy in % found,Venturia inaequalis; 5 ppm,36%
"O=C(NCCc1ncc(C(F)(F)F)cc1Cl)c1ccccc1C(F)(F)F [(C-6) fluopyram, N-{2-[3-chloro-5-(trifluoromethyl)pyridin-2-yl]ethyl}-2-(trifluoromethyl)benzamide]",pest or weed control at 2.5 ppm,Alternaria solani; [5],23%
"CC(C)CC(C)c1sccc1NC(=O)c1cn(C)nc1C(F)(F)F (centres unmarked) [(C-12) penthiopyrad, penthiopyrad]",pest or weed control at 250 ppm,[1],88%
same,Efficacy in % found,Venturia inaequalis; 5 ppm,60%
"Cc1nn(C)c(F)c1C(=O)Nc1ccccc1C(C)CC(C)C (centres unmarked) [(C-14), N-[2-(1,3-dimethylbutyl)phenyl]-5-fluoro-1,3-dimethyl-1H-pyrazole-4-carboxamide]",pest or weed control at 2.5 ppm,Alternaria solani; [5],0%
same,pest or weed control at 250 ppm,[1],67%
"Cn1cc(C(=O)Nc2ccccc2OC(F)(F)C(F)F)c(C(F)F)n1 [(C-19), 3-(difluoromethyl)-1-methyl-N-[2-(1,1,2,2-tetrafluoroethoxy)phenyl]-1H-pyrazole-4-carboxamide]",Efficacy in % found,[2],78%
same,Efficacy in % found,Venturia inaequalis; 5 ppm,35%
"CC(C)C1C2CCC1c1c(NC(=O)c3cn(C)nc3C(F)F)cccc12 (centres unmarked) [(C-41) isopyrazam, 3-(difluoromethyl)-1-methyl-N-[1,2,3,4-tetrahydro-9-(1-methylethyl)-1,4-methanonaphthalen-5-yl]-1H-pyrazole-4-carboxamide]",pest or weed control at 500 ppm,[1],78%
"CSC1=N[C@@](C)(c2ccccc2)C(=O)N1Nc1ccccc1 [(D-2) fenamidone, fenamidone]",Efficacy in % found,Plasmopara viticola; 1 ppm,19%
"CO/C=C(/C(=O)OC)c1ccccc1Oc1cc(Oc2ccccc2C#N)ncn1 [(D-4) azoxystrobin, azoxystrobin]",Efficacy in % found,Leptosphaeria nodorum [3],60%
"CO/N=C(/C1=NOCCO1)c1ccccc1Oc1ncnc(Oc2ccccc2Cl)c1F [(D-8) fluoxastrobin, fluoxastrobin]",pest or weed control at 5 ppm,Alternaria solani; [5],35%
same,pest or weed control at 500 ppm,[1]; 500 ppm,78%
"COC(=O)N(OC)c1ccccc1COc1ccn(-c2ccc(Cl)cc2)n1 [(D-13) pyraclostrobin, pyraclostrobin]",pest or weed control at 5 ppm,Alternaria solani; [5],49%
same,Efficacy in % found,Leptosphaeria nodorum [4],94%
"CON=C(C(=O)OC)c1ccccc1CON=C(C)c1cccc(C(F)(F)F)c1 [(D-15) trifloxystrobin, trifloxystrobin]",pest or weed control at 5 ppm,Alternaria solani; [5],40%
same,Efficacy in % found,Puccinia triticina; 500 ppm,83%
"O=C(NCc1ncc(C(F)(F)F)cc1Cl)c1c(Cl)cccc1Cl [(E-6) fluopicolide, fluopicolide]",Efficacy in % found,Phytophthora infestans; 2 ppm,9%
"N#Cc1c(Cl)c(Cl)c(Cl)c(C#N)c1Cl [(F-4) chlorothalonil, chlorothalonil]",Efficacy in % found,Pyrenophora teres; 1000 ppm,30%
"Cc1cc(C)nc(Nc2ccccc2)n1 [(G-10) pyrimethanil, pyrimethanil]",Efficacy in % found,Botrytis cinerea; 12.5 ppm,13%
"CC(C)[C@H](NC(=O)O)C(=O)N[C@H](C)c1nc2ccc(F)cc2s1 [(G-15) benthiavalicarb, benthiavalicarb]",Efficacy in % found,Phytophthora infestans; 0.5 ppm,23%
"COc1ccc(C(=CC(=O)N2CCOCC2)c2ccc(Cl)cc2)cc1OC [(G-16) dimethomorph, dimethomorph]",Efficacy in % found,Plasmopara viticola; 1 ppm,0%
"Cc1ccc(C(C)NC(=O)[C@@H](NC(=O)OC(C)C)C(C)C)cc1 (some centres unmarked) [(G-18) iprovalicarb, iprovalicarb]",Efficacy in % found,Phytophthora infestans; 2 ppm,30%
same,Efficacy in % found,Plasmopara viticola; 0.5 ppm,0%
"CC(C)NC(=O)N1CC(=O)N(c2cc(Cl)cc(Cl)c2)C1=O [(G-31) iprodione, iprodione]",Efficacy in % found,Botrytis cinerea; 12.5 ppm,11%
"CCCOC(=O)NCCCN(C)C [(G-35) propamocarb hydrochloride, propamocarb hydrochloride]",Efficacy in % found,Phytophthora infestans; 100 ppm,0%
same,Efficacy in % found,Plasmopara viticola; 400 ppm,0%
"COCC(=O)N(c1c(C)cccc1C)[C@H](C)C(=O)OC [(G-55) metalaxyl-M, metalaxyl-M]",Efficacy in % found,Phytophthora infestans; 2.5 ppm,10%
"N#Cc1c[nH]cc1-c1cccc2c1OC(F)(F)O2 [(G-60) fludioxonil, fludioxonil]",Efficacy in % found,Pyrenophora teres; 250 ppm,78%
"O=[N+]([O-])c1cc(C(F)(F)F)c(Cl)c([N+](=O)[O-])c1Nc1ncc(C(F)(F)F)cc1Cl [(G-64) fluazinam, fluazinam]",Efficacy in % found,Plasmopara viticola; 5 ppm,0%
"CCNC(=O)NC(=O)/C(C#N)=N/OC [(G-73) cymoxanil, cymoxanil]",Efficacy in % found,Plasmopara viticola; 50 ppm,0%
"CCO[PH](=O)O [(G-86) fosetyl-Al, fosetyl-Al]",Efficacy in % found,Plasmopara viticola; 200 ppm,0%
"OP(O)O [(G-101) phosphorous acid, phosphorous acid]",Efficacy in % found,Plasmopara viticola; 400 ppm,30%
mancozeb [(F-20) mancozeb],Efficacy in % found,Phytophthora infestans; 25 ppm,20%
same,Efficacy in % found,Plasmopara viticola; 100 ppm,5%
same,Efficacy in % found,Alternaria solani; 50 ppm,31%
propineb [(F-24) propineb],Efficacy in % found,Phytophthora infestans; 100 ppm,15%
same,Efficacy in % found,Plasmopara viticola; 100 ppm,51%
